In patent US7842683B2, “Neurotherapeutic compositions and method” (Revaax Pharmaceuticals, LLC, priority 1999, dated 2010):
Several values for one entry are separate records, joined by “and”; a condition that tells them apart may be missing. Equal entries are not always repeated. Where two headings read alike, the source gives them in different places.

How the values were obtained:
Male Wistar rats = assay: Elevated plus-maze (anxiolytic activity); type: in vivo, rat
[1] = cited from earlier work
[2] = system: gram negative beta-lactamase enzymes; settings: cited from earlier work
[3] = approximately 7-10 mg/kg/day, intravenous as TIMENTIN; cited from earlier work
hamsters = assay: Olfactory discrimination: latency to find hidden sunflower seeds; type: in vivo, Syrian golden hamsters (Mesocricetus auratus); settings: 50 μg/kg
Protocol: Sixteen animals were treated with vehicle or 50 μg/kg Mox and tested for olfactory discrimination by measuring their latency to find hidden sunflower seeds (FIG. 5). The injections were counterbalanced with each animal receiving each treatment. Prior to testing animals were fasted for 24 hrs. Ninety minutes after injection animals were briefly taken from their home cage while six sunflower seeds were buried under the bedding in one corner. Animals were placed back into their home cage and scored for the latency to find the seeds in a ten min observation period. […] In fact, not one of the sixteen animals consumed all of the seeds following saline as compared to all animals treated with Mox.
Six animals received an intracerebroventricular injection of vehicle or 1 mg/kg PPP and tested for olfactory discrimination by measuring their latency to find hidden sunflower seeds (FIG. 16). The injections were counterbalanced with each animal receiving each treatment. Prior to testing animals were fasted for 24 hrs. Sixty min. After injection animals were briefly taken from their home cage while six sunflower seeds were buried under the bedding in one corner. Animals were placed back into their home cage and scored for the latency to find the seeds in a five min. Observation period.

[4] = system: adolescent male rhesus macaques; assay: Social behavior in non-human primates; type: in vivo; settings: 1 mg/kg IM
Protocol: Eight, two year old adolescent male rhesus macaques were tested with Mox. Animals were raised with their mothers in a group setting at a field station. At one year of age, they were transferred to individual cages. Each day thereafter, they were paired housed for two-three hrs. The adolescent partners were always the same. […] The display of social behaviors in this arrangement are very robust because of the limited amount of time the monkeys spend together. During the experiment the monkeys were paired in the “play-cage” where they were video taped for one hour. The study was designed so that behavioral data were obtained for each monkey under Mox and vehicle treatment. The treatment was an ABA type schedule of administration: Day 1—one member of each pair received 0.9% NaCl vehicle, Day 2—drug, Day 3—vehicle. Only one member of a pair was injected on a test day. The other member of a pair was injected a week later according to the same ABA schedule. […] Animals were video taped sixty minutes after injection for a one hr observation period. Animals were scored for over forty different behaviors (Winslow et al., 1988). Only twenty-eight are listed on TABLE I. The unreported behaviors, e.g., self-bites, vocalizations, clinging, mounts, escapes, self grooming were so infrequent that they were omitted from the analysis. Paired t-test was run for each behavioral measure.

vasopressin V1A receptor = assay: Membrane binding assay, competition for I125 HO-LVA; settings: 1 μM, hamster liver membrane preparation
Source text: (§1) Vasopressin and serotonin are both critical neurotransmitters in the control of offensive aggression in male hamsters (Ferris et al., 1998). These two neurotransmitters also are implicated in the control of human aggression (Coccaro et al., 1998). Vasopressin facilitates aggressive behavior while serotonin inhibits aggression, in part, by inhibiting the activity of the vasopressin system. Blockade of vasopressin V1A receptors and stimulation of serotonin 5HT1A receptors in the anterior hypothalamus blocks offensive aggression (Ferris et al., 1999). […] To test this notion Mox was tested in a membrane binding assay for competition for the V1A receptor (Ferris et al., 1994) and in a receptor autoradiography assay for competition for the 5HT1A receptors (Ferris et al., 1999).

[5] = system: serotonin 5HT1A receptors; assay: Receptor autoradiography, competition for I125 DPAT; type: binding; settings: tissue sections of the hamster brain
Source text: as §1

[6] = system: Amino Acid, Adrenergic, Serotonergic, and Dopaminergic Receptors and Their Transporters; assay: NOVASCREEN screen of thirty-six receptor and transporter binding assays; settings: 100 nM, duplicate samples
Source text: Moxalactam was screened in thirty-six different binding assays by NOVASCREEN, a contract research organization based in Hanover, Md. […] These assays were chosen because their respective receptor or transporter may play a role in the pathophysiology of mental illness. […] [table] [table] [table] [table] [table]

[7] = system: Corticotropin Releasing Factor receptor; assay: NOVASCREEN CRF binding assay; settings: 100 nM
Protocol: [table] Corticotropin releasing hormone (CRH or CRF as shown on the following page) is a critical neurohormone in the regulation of stress. Since Mox suppresses impulsivity, aggression, and anxiety while enhancing learning and memory it may be acting to reduce stress. For this reason, Mox was tested by NOVASCREEN in a CRF binding assay.

[8] = cited from earlier work; remark: listed apart in the source

## O=C(O)[C@H]1/C(=C/CO)O[C@@H]2CC(=O)N21 [CLAV, Clavulanic acid]
Male Wistar rats; CLAV 100 ng/kg vs CDP 10 mg/kg
  effective dose, times less than CDP: 100,000 times
Male Wistar rats; daily IP for seven days: CLAV 100 ng/kg, CDP 10 mg/kg
  open arm entries: no significant difference
[1]; in vivo
  CSF/plasma ratio: around 0.25
  elimination half-life: under two
  plasma half-life: over 2 hrs
  volume of distribution: around 15 liters
[1]; oral
  bioavailability: 64 to 75%
[2]
  binding affinity for the beta-lactamases: very high
  concentration range inhibiting gram negative beta-lactamase enzymes: 15 to 34 nM
[3]
  adverse reactions or contraindications: no reported adverse reactions or contraindications

## CO[C@@]1(NC(=O)C(C(=O)O)c2ccc(O)cc2)C(=O)N2C(C(=O)O)=C(CSc3nnnn3C)CO[C@@H]21 (stereo partly drawn) [Mox, 7-β-[2-carboxy-2-(4-hydroxyphenyl)acetamido]-7α-methoxy-3-[[(1-methyl-1H-tetrazol-5-yl)thio]methyl]-1-oxa-1-dethia-3-cephem-4-carboxylic acid]
hamsters
  time to consume all seeds: less than five
hamsters; 90 min, fasted 24 hrs
  latency to find the seed: significantly (p<0.001) reduced
[4]
  allogrooming: no effect
[4]; sixty minutes after injection, one hr observation
  duration of play fighting: significantly reduced
Vasopressin V1A receptor
  displacement of I125 HO-LVA binding: did not significantly displace
[5]
  reduction of specific binding of I125 DPAT: ineffective
[6]
  effect in the thirty-six binding assays: no significant effect
[7]
  effect in the CRF binding assay: no effect
[8]; 8-12 hr intervals
  accumulation with multiple injections: no accumulation
[8]; IM injection
  elimination half-life: 2.3 h
[8]; after IM injection
  time of peak plasma concentrations: one
[8]; human, in vivo
  CSF concentration as a percentage of serum concentration: 20% and 15-20%
